Assay results taken from ChEMBL document CHEMBL6114996, “Design, synthesis, and biological evaluation of β-carboline derivatives as ABCB1 inhibitors for reversing multidrug resistance” (Eur J Med Chem, 2025).

Key:
SW620/AD300 = assay: Cytotoxicity against human SW620/AD300 cells assessed as reduction in cell viability at 20 uM incubated for 72 hrs by CCK-8 assay relative to control; format: functional
[1] = Reversal fold, ratio of PTX IC50 to PTX IC50 in presence of test compound for reversal of multi-drug resistance in human SW620/AD300 cells incubated for 72 hrs by CCK-8 assay (reference value: 1.0); format: functional
[2] = Toxicity in male BALB/c nude mouse xenografted with ABCB1 overexpressing human SW620/AD300 cells assessed as body weight loss at 50 mg/kg administered every 3 days and measured after 14 days; format: organism-based; details: in vivo, 336 h, time 14 day
[3] = Toxicity in male BALB/c nude mouse xenografted with ABCB1 overexpressing human SW620/AD300 cells assessed as cell necrosis in spleen at 50 mg/kg administered every 3 days and measured after 14 days by H and E staining based analysis; format: organism-based; details: in vivo, 336 h, time 14 day
[4] = biological target: T1, ATP-dependent translocase ABCB1 (Homo sapiens, UniProt P08183); assay: Inhibition of ABCB1 in human SW620/AD300 cells assessed as accumulation of Rhodamine-123 by measuring fluorescence intensity incubated for 24 hrs by flow cytometric analysis; format: cell-based; details: sw620/ad300, 24 h, at 5 to 20 µM, dose 5-20 µM
[5] = Toxicity in male BALB/c nude mouse xenografted with ABCB1 overexpressing human SW620/AD300 cells assessed as body weight loss measured after 14 days in presence of paclitaxel; details: 336 h, time 14 day
[6] = Toxicity in male BALB/c nude mouse xenografted with ABCB1 overexpressing human SW620/AD300 cells assessed as cell necrosis in kidney at 50 mg/kg administered every 3 days and measured after 14 days by H and E staining based analysis; format: organism-based; details: in vivo, 336 h, time 14 day
[7] = biological target: T1, ATP-dependent translocase ABCB1; assay: Binding affinity to ABCB1 (unknown origin) in human SW620/AD300 cells assessed as thermal stabilization at 20 uM at 40 to 65 degreeC incubated for 30 mins by CETSA; format: cell-based; details: sw620/ad300, 0.5 h
[8] = Toxicity in male BALB/c nude mouse xenografted with ABCB1 overexpressing human SW620/AD300 cells assessed as cell necrosis in liver at 50 mg/kg administered every 3 days and measured after 14 days by H and E staining based analysis; format: organism-based; details: in vivo, 336 h, time 14 day
[9] = Toxicity in male BALB/c nude mouse xenografted with ABCB1 overexpressing human SW620/AD300 cells assessed as cell necrosis in kidney measured after 14 days in presence of paclitaxel by H and E staining based analysis; format: tissue-based; details: 336 h, time 14 day
[10] = Toxicity in male BALB/c nude mouse xenografted with ABCB1 overexpressing human SW620/AD300 cells assessed as cell necrosis in liver measured after 14 days in presence of paclitaxel by H and E staining based analysis; details: 336 h, time 14 day
[11] = Toxicity in male BALB/c nude mouse xenografted with ABCB1 overexpressing human SW620/AD300 cells assessed as cell necrosis in spleen measured after 14 days in presence of paclitaxel by H and E staining based analysis; details: 336 h, time 14 day

T1 sequence (P08183 whole entry): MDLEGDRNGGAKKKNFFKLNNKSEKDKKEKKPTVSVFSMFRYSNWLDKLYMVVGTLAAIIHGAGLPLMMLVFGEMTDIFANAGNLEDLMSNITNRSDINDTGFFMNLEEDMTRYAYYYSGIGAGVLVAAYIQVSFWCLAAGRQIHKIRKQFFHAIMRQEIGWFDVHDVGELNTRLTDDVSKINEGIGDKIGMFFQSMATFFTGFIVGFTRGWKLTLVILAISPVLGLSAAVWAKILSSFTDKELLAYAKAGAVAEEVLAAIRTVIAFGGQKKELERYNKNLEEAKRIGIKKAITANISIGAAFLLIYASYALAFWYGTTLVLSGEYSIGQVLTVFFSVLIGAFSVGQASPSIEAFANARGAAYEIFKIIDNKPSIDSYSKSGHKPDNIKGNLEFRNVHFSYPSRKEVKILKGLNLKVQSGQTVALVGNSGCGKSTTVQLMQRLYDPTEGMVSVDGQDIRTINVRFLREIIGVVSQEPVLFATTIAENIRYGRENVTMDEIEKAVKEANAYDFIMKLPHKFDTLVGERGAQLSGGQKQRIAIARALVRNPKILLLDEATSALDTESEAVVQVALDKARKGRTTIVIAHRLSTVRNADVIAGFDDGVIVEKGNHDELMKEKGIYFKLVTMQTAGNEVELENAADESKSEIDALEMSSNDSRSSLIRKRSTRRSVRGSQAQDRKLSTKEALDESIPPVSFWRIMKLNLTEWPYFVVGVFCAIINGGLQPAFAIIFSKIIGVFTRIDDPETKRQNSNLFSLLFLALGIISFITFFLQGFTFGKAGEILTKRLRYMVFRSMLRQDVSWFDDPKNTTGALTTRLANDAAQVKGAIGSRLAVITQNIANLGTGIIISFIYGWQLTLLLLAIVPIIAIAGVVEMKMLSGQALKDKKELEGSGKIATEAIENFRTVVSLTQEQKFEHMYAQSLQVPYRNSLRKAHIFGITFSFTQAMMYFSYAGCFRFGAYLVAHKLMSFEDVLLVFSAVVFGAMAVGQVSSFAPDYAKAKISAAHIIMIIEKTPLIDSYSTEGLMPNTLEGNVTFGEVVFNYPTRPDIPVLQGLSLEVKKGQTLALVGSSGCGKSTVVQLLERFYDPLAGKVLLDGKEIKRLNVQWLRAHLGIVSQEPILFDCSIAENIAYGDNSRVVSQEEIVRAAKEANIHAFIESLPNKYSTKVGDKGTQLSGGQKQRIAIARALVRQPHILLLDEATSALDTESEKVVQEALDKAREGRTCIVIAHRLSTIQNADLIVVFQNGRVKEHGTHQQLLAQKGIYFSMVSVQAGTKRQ

SMILES | Activity (SW620/AD300) [%] | Ratio IC50 [1] | other results
CC(C)Cc1nccc2c3ccccc3n(CC(C)C)c12 | <80 |  | 
Cn1c2ccccc2c2ccnc(-c3ccc(C(F)(F)F)cc3)c21 | >80 | 25.9 | 
CCc1ccc(-c2nccc3c4ccccc4n(Cc4ccc(C)cc4)c23)cc1 | >80 | 26.6 | 
Clc1cc(Cl)cc(-c2nccc3c2[nH]c2ccccc23)c1 | >80 | 7.3 | 
CCc1ccc(-c2nccc3c4ccccc4n(CC)c23)cc1 | <80 |  | 
FC(F)(F)c1ccc(-c2nccc3c2[nH]c2ccccc23)cc1 | >80 | 3.2 | 
CCC(CC)c1nccc2c1[nH]c1ccccc12 | >80 | 31 | 
CCc1nc(C(=O)OC)cc2c1[nH]c1ccccc12 | >80 | 1.3 | 
COc1ccc(-c2nccc3c4ccccc4n(Cc4ccc(C)cc4)c23)cc1 | >80 | 25.6 | 
COc1ccc(-c2nccc3c2[nH]c2ccc(OC)cc23)cc1 | <80 |  | 
Oc1ccc(-c2nccc3c2[nH]c2ccccc23)cc1 | >80 | 1.6 | 
CCn1c2ccccc2c2ccnc(CC(C)C)c21 | <80 |  | 
CCc1ccc(-c2nccc3c4ccccc4n(Cc4ccc(C(C)C)cc4)c23)cc1 | <80 |  | 
CC(C)Cc1nccc2c1[nH]c1ccccc12 | >80 | 3.2 | 
Cc1nc(-c2cccc(-c3nccc4c3[nH]c3ccccc34)c2)no1 | >80 | 3.3 | 
CCc1ccc(-c2nc(C(=O)OC)cc3c2[nH]c2ccccc23)cc1 | >80 |  | 
COc1ccc(-c2nccc3c4ccccc4n(Cc4ccccc4C)c23)cc1 | <80 |  | 
COc1ccc(-c2nccc3c2[nH]c2cc(OC)ccc23)cc1 | 80 |  | 
Cc1ccc(-c2nccc3c2[nH]c2ccccc23)cc1 | <80 |  | 
C#CCn1c2ccccc2c2ccnc(CC(C)C)c21 | >80 | 15.9 | 
CCc1ccc(-c2nc(C(=O)OCc3ccccc3)cc3c2[nH]c2ccccc23)cc1 | >80 |  | 
COc1ccc(-c2nccc3c4ccccc4n(Cc4ccc(C(C)C)cc4)c23)cc1 | >80 | 26.3 | 
CCc1ccc(-c2nccc3c2[nH]c2ccccc23)cc1 | <80 |  | 
COc1ccc(-c2nccc3c4ccccc4n(C)c23)cc1 |  |  | Activity [2]: Non-toxic; Activity [3]: Non-toxic; inhibition (INH) [4]: Dose-dependent-effect; Activity [5]: Non-toxic; Activity [6]: Non-toxic; Activity [7]: Active; Activity [8]: Non-toxic; Activity [9]: Non-toxic; Activity [10]: Non-toxic; Activity [11]: Non-toxic

SMILES | Activity (SW620/AD300) [%] | Ratio IC50 [1] | other results
Fc1ccc(-c2nccc3c2[nH]c2ccccc23)cc1 | >80 | 5.3 | 
CCc1ccc(-c2nccc3c4ccccc4n(Cc4ccccc4C)c23)cc1 | <80 |  | 
CCC(CC)c1nccc2c3ccccc3n(C)c12 | <80 |  | 
Cc1nc(-c2ccc(-c3nccc4c3[nH]c3ccccc34)cc2)no1 | >80 | 27.5 | 
CCOC(=O)c1cc2c([nH]c3ccccc32)c(CC(C)C)n1 | >80 | 47.4 | 
COc1ccc(-c2nccc3c2[nH]c2ccccc23)cc1 | >80 | 37.8 | 
Cc1cccc2c1[nH]c1c(CC(C)C)nccc12 | <80 |  | 
COc1ccc2c(c1)[nH]c1c(CC(C)C)nccc12 | <80 |  | 
N#Cc1ccc(-c2nccc3c2[nH]c2ccccc23)cc1 | >80 | 3.5 | 
COc1cc(OC)cc(-c2nccc3c2[nH]c2ccccc23)c1 | <80 |  | 
N#Cc1cccc(-c2nccc3c2[nH]c2ccccc23)c1 | >80 | 2.2 | 
CC(C)Cc1nc(C(=O)OCc2ccccc2)cc2c1[nH]c1ccccc12 | >80 | 4 | 
CCn1c2ccccc2c2ccnc(-c3ccc(OC)cc3)c21 | >80 | 12.3 | 
CC(C)c1ccc(-c2nccc3c2[nH]c2ccccc23)cc1 | <80 |  | 
CCC(CC)c1nccc2c1[nH]c1ccc(OC)cc12 | <80 |  | 
CCc1ccc(-c2nccc3c4ccccc4n(C)c23)cc1 | <80 |  | 
COc1ccc(-c2nccc3c4ccccc4n(Cc4ccccc4)c23)cc1 | <80 |  | 
COc1ccc(-c2nccc3c2[nH]c2c(C)cccc23)cc1 | <80 |  | 
CC(C)Cc1nccc2c3ccccc3n(C)c12 | <80 |  | 
COC(=O)c1cc2c([nH]c3ccccc32)c(CC(C)C)n1 | >80 | 2.7 | 
CC(C)Cc1nccc2c3ccccc3n(Cc3ccccc3)c12 | >80 | 113.6 | 
CCn1c2ccccc2c2ccnc(-c3ccc(C(F)(F)F)cc3)c21 | >80 | 14.8 | 
CCC(CC)c1nccc2c3ccccc3n(CC)c12 | <80 |  | 
COc1ccc2[nH]c3c(CC(C)C)nccc3c2c1 | <80 |  | 
